Reference: US20040053842A1, “Methods of treatment with CETP inhibitors and antihypertensive agents” (Pfizer Inc., priority 2002, published 2004)

Experiment: aqueous solubility
Assay type: physicochemical
Conditions: aqueous environments

- solubility: < 0.04 µg/mL
Compound: CCOC(=O)N1c2ccc(C(F)(F)F)cc2[C@@H](N(Cc2cc(C(F)(F)F)cc(C(F)(F)F)c2)C(=O)OC)C[C@H]1CC [torceptrapib, [2R,4S]-4-[(3,5-bis-trifluoromethyl-benzyl)-methoxycarbonyl-amino]-2-ethyl-6-trifluoromethyl-3,4-dihydro-2H-quinoline-1-carboxylic acid ethyl ester]
